# Source: patent publication US12590340B2, “Microfluidic plasmonic color reading chips and methods” (priority 2021, dated 2026)
# “Also recorded” adds a separate entry of the source. Where two headings read alike, the source gives them in different places.
# What was measured:
# Cipro. Resistant PA [1] = experiment: antibiotic susceptibility profiling by resazurin color change on the plasmonic microfluidic chip; format: cell-based, Pseudomonas aeruginosa; conditions: 5×10^5 CFU/mL; 2 ug/mL Ciprofloxacin, 4 ug/mL Gentamicin
# Description: (§1) Resistant E. coli, MRSA, and Cipro. Resistant PA respectively was used. The aliquots were incubated at 37° C. for different periods of time starting from 0 minutes incubation to a 60 minutes with a time step of 5 minutes. For susceptible bacterial samples, aliquots of Amp resistant E. coli were prepared (5×10^5 CFU/mL, 10^3 CFU/mL, 10^2 CFU/mL, and 50 CFU/mL), MRSA (5×10^5 CFU/mL), and Cipro. Resistant PA (5×10^5 CFU/mL). […] Resistant E. coli, MRSA, and Cipro. Resistant PA respectively was used. The aliquots were incubated at 37° C. different periods starting from 0 minutes incubation till 60 minutes with a time step of 5 minutes.
# To rapidly detect the sample color change on the platform the reflectance spectra was measured using a Lambda 750 UV/Vis/NIR Spectrophotometer (PerkinElmer). The incident and collected light beams had normal incidence to the platform. […]
# (§2) To conveniently convert the microscopy results to the feasible CIE color gamut, each picture of the data set loaded to MATLAB was read as a 3 layer matrix, each pixel has 3 components, one per layer, corresponding to its R, G and B value. […] Following that, the mean across the collection was calculated. […]
# (§3) All images were processed and analyzed through a MATLAB™ script which allowed the analysis of multiple images simultaneously. […]
# Cipro. Resistant PA [2] = conditions: 60 minutes, 5×10^5 CFU/mL
# Excerpt: (§4) The microfluidic chip used was similar to that illustrated in FIG. 1B, having two characteristic chambers 1) antibiotic infusing chamber (AI) 103 equipped with bacteria entrapping micropillars 104p; and 2) plasmonic color-sensitive chamber (PCS) 105. The operational procedure of the microfluidic chip was to inject the bacteria containing growth media along with an antibiotic of interest and 0.02% resazurin solution from the inlet to get mixed in the Al mixing and entrapment chamber. Microfluidic chips were incubated for one hour through time intervals of 5 minutes. After incubation, the liquid in the Al chamber 103 was pushed towards the PCS chamber 105 sensing chamber while the bacteria was entrapped behind the micropillars 104p.
# MRSA [3] = experiment: antibiotic susceptibility profiling by resazurin color change on the plasmonic microfluidic chip; format: cell-based, Staphylococcus aureus; conditions: 5×10^5 CFU/mL, 4 ug/mL Oxacillin; for color response over 1-hour incubation (resistant / susceptible): 1 ug/mL Ciprofloxacin
# Description: as §1
# (§5) To rapidly detect the sample color change on the platform the reflectance spectra was measured using a Lambda 750 UV/Vis/NIR Spectrophotometer (PerkinElmer). The incident and collected light beams had normal incidence to the platform. Further, optical imaging was performed under highly controlled environment using Nikon Eclipse LV150 (Nikon) with a ×100, 0.9 NA air objective and Nikon digital sight ds-fi1 CCD camera with a white reference of R:0.75 G:1.0 B:2.36.51.
# as §4, with “After incubation, the liquid in the Al chamber 103 was pushed towards the PCS chamber 105 sensing chamber while the bacteria was entrapped behind the micropillars 104p.” left out
# as §2, §3
# Amp resistant E. coli = experiment: minimum inhibitory concentration (MIC) study with resazurin on the chip; conditions: for y-value: 60 minutes, 5×10^5 CFU/mL
# [4] = tested on: Ampicillin resistant Escherichia coli strain; experiment: antibiotic susceptibility profiling by resazurin color change on the plasmonic microfluidic chip; format: cell-based; conditions: for constant green value throughout the 1-hour incubation: 50 μg/mL kanamycin; for increase in green value of the 1-hour incubated aliquots compared to the zero minute incubation aliquot: 100 μg/mL ampicillin, 37° C.
# Description: Ampicillin resistant Escherichia coli strain (Amp resistant E. coli, #211540, Merlan scientific, Ontario, Canada) was cultured overnight at 37° C. in Luria broth (LB) media supplemented with 100 μg/mL Ampicillin (#216858, Merlan scientific, Ontario, Canada). Next, the bacterial concentration was determined by optical density technique using a Spectronic 21D spectrophotometer. Subsequently, aliquots of different concentrations were prepared for the antibiotic susceptibility testing experiments.
# as §1, §5, §4
# To conveniently convert the microscopy results to the feasible CIE color gamut, each picture of the data set loaded to MATLAB was read as a 3 layer matrix, each pixel has 3 components, one per layer, corresponding to its R, G and B value. The processing involved image crop and a sample selection. A simple average calculation was run individually to get an overall value for R, G and B components for each of the 5 samples generated. Following that, the mean across the collection was calculated. The error bar was computed at 1 standard deviation.
# All images were processed and analyzed through a MATLAB™ script which allowed the analysis of multiple images simultaneously. The TIFF files were loaded and cropped to 80% of their original dimensions to avoid the coffee-ring effect. An option for the manual crop was also available. For each image, five samples of 480×480 pixels were randomly selected. Subsequently, for each the R, G and B values were averaged followed by the calculation of the mean RGB value and error across them. Succeeding their conversion to XYZ and x, y color systems. The RGB values of each image with its corresponding error bar were plotted against time. Additionally, the x and y values were scattered on the CIE1931 color space to analyze the color change through time.
# Amp. Resistant E. coli [5] = experiment: antibiotic susceptibility study in spiked human urine on the chip; format: cell-based, Escherichia coli
# Description: For the spiked human sample experiment, human urine was centrifuged at 5000 rcf for 5 minutes to remove large particles. It was subsequently spiked with 5×10^5 CFU/mL and mixed with a solution of resazurin to a final concentration of 0.02%. No antibiotics were added for the control aliquots, 100 μg/mL ampicillin was added for resistant aliquots and 50 μg/mL Kanamycin was added for susceptible aliquots. The aliquots were incubated at 37° C. different periods starting from 0 minutes incubation till 60 minutes with a time step of 5 minutes.
# FIGS. 11A-11F show the results of an antibiotic susceptibility study conducted using human urine spiked with Amp. Resistant E. coli to a final concentration of 5×10^5 CFU/mL. The study utilized 3 aliquot sets of control (no antibiotic), resistant (100 μg/mL Ampicillin), and susceptible (50 μg/mL Kanamycin). […] The trend is highlighted with a white arrow on the 2D chromaticity diagram in FIG. 11B. […] are web plots of the red, green, and blue values analyzed from the bright-field microscopy of the sets. […] Green values increased overtime in the control and resistant sets (88 to 122 for resistant and 82 to 117 for control) showing the change towards green color and indicating the reduction of resazurin to resorufin by viable bacterial cells. […] Resistant E. coli.
# Amp. Resistant E. coli [6] = experiment: antibiotic susceptibility study in spiked whole blood on the chip; format: cell-based, Escherichia coli; conditions: 100, 50, 20 CFU/mL, 32 μg/mL Ampicilin, up to 150 minutes
# Description: For the spiked human sample experiment, human whole blood was centrifuged in two steps first at 150 rcf for 10 minutes followed by 7000 rcf for 3 min. It was subsequently spiked with 100, 50 or 20 CFU/mL and mixed with a solution of resazurin to a final concentration of 0.01%. No antibiotics were added for the control aliquots, 32 μg/mL ampicillin was added for resistant aliquots and 16 μg/mL kanamycin was added for susceptible aliquots. The aliquots were incubated at 37° C. different periods starting from 0 minutes incubation till 150 minutes with a time step of 5 minutes.
# FIGS. 12A-12B show the results of an antibiotic susceptibility study conducted using whole blood spiked with Amp. Resistant E. coli to a final concentration of 100, 50, 20 CFU/mL in the presence of 32 μg/mL Ampicilin. […] The mean Gvalue/Bvalue (a) can be a credible parameter to follow the sequence in the color change and translate it to a quantifiable data FIG. 12B. […] Quantifiably, the time in which the α-value undergoes a step levitation is corresponding to the time the color transition is visible to the naked eye.
# MRSA [7] = experiment: minimum inhibitory concentration (MIC) study with resazurin on the chip; conditions: for y-value: 60 minutes, 5×10^5 CFU/mL
# MRSA [8] = experiment: standard MIC assay using CLSI protocols; format: cell-based, Staphylococcus aureus; conditions: 96 well plate, overnight culture; 5×10^5 CFU/mL
# Description: For the Clinical & Laboratory Standards Institute (CLSI) MIC protocol bacteria were streaked on LB agar overnight and resuspended in water aliquot. The aliquot was measured, and the bacteria concentration was adjusted to 10^6 CFU/mL in LB media. A 96 well plate with an antibiotic gradient from 128 μg/ml to 0.125 μg/ml in a 2-fold concentration dilution step was prepared with a positive control with no antibiotics. Next, the bacteria were introduced to each well of the 96 well plate for a final bacteria concentration of 5×10^5 CFU/mL. The well plates were cultured overnight.
# [9] = 5×10^5 CFU/mL, 100 μg/mL Ampicillin, 50 μg/mL Kanamycin
compound,measurement,setting,value
O=C(O)c1cn(C2CC2)c2cc(N3CCNCC3)c(F)cc2c1=O [Ciprofloxacin],color response over 1-hour incubation (resistant / susceptible),Cipro. Resistant PA [1],color change from initial dark blue to green; also recorded: resistant
same,y-value,Cipro. Resistant PA [2]; 8 μg/mL Ciprofloxacin,0.38
same,y-value,Cipro. Resistant PA [2]; 16 μg/mL Ciprofloxacin,0.125
same,y-value,Cipro. Resistant PA [2]; 32 μg/mL Ciprofloxacin,0.175
same,color response over 1-hour incubation (resistant / susceptible),MRSA [3],constant dark blue color; also recorded: susceptible
NC[C@H]1O[C@H](O[C@H]2[C@H](O)[C@@H](O[C@H]3O[C@H](CO)[C@@H](O)[C@H](N)[C@H]3O)[C@H](N)C[C@@H]2N)[C@H](O)[C@@H](O)[C@@H]1O [Kanamycin],y-value,Amp resistant E. coli; 4 μg/mL kanamycin,0.3
same,y-value,Amp resistant E. coli; 8 μg/mL kanamycin,0.125
same,y-value,Amp resistant E. coli; 16 μg/mL kanamycin,0.175
same,MIC,"Amp resistant E. coli; Escherichia coli, 1 h, read-out: minimum inhibitory concentration (MIC)",8 µg/mL
same,constant green value throughout the 1-hour incubation,[4]; 5×10^5 CFU/mL,49.26±5.32
same,constant green value throughout the 1-hour incubation,[4]; 10^2 CFU/mL,47.28±1.93
same,constant green value throughout the 1-hour incubation,[4]; 10^3 CFU/mL,48.12±3.21
same,constant green value throughout the 1-hour incubation,[4]; 50 CFU/mL,46.15±2.56
same,constant blue value throughout the 1-hour incubation,Amp. Resistant E. coli [5]; 50 μg/mL Kanamycin,138.7±5.3
same,constant green value throughout the 1-hour incubation,Amp. Resistant E. coli [5]; 50 μg/mL Kanamycin,76.8±4.5
same,constant red value throughout the 1-hour incubation,Amp. Resistant E. coli [5]; 50 μg/mL Kanamycin,56.6±4.7
same,"y-value, constant (susceptible set)","Amp. Resistant E. coli [5]; 50 μg/mL Kanamycin, 5×10^5 CFU/mL, 1-hour incubation",0.205±0.025
CC1(C)S[C@@H]2[C@H](NC(=O)[C@H](N)c3ccccc3)C(=O)N2[C@H]1C(=O)O [Ampicillin],color response,Amp. Resistant E. coli [6],color change trend from dark blue at zero-minute incubation towards cyan
same,"increase of y values (2D chromaticity diagram) over 1-hour incubation, control and resistant aliquots","[4]; 100 μg/mL Ampicillin, 5×10^5 CFU/mL",0.19 to 0.33
same,increase in green value of the 1-hour incubated aliquots compared to the zero minute incubation aliquot,[4]; 5×10^5 CFU/mL,194%
same,increase in green value of the 1-hour incubated aliquots compared to the zero minute incubation aliquot,[4]; 10^2 CFU/mL,142%
same,increase in green value of the 1-hour incubated aliquots compared to the zero minute incubation aliquot,[4]; 10^3 CFU/mL,140%
same,increase in green value of the 1-hour incubated aliquots compared to the zero minute incubation aliquot,[4]; 50 CFU/mL,131%
same,color response over 1-hour incubation (resistant / susceptible),[4]; [9],color change from initial dark blue to green; also recorded: color-change from navy blue to green
same,increase of green values over time (resistant set),"Amp. Resistant E. coli [5]; 100 μg/mL Ampicillin, 1-hour incubation",88 to 122
same,increase in the y-value over time (resistant aliquots),"Amp. Resistant E. coli [5]; 100 μg/mL Ampicillin, 5×10^5 CFU/mL, 1-hour incubation",0.22 to 0.34
same,color response over 1-hour incubation,Amp. Resistant E. coli [5]; [9],color change trend from dark blue at zero-minute incubation towards cyan; also recorded: color-change from navy blue to green
Gentamicin,color response over 1-hour incubation (resistant / susceptible),Cipro. Resistant PA [1],constant dark blue color; also recorded: susceptible
Cc1onc(-c2ccccc2)c1C(=O)N[C@@H]1C(=O)N2[C@@H]1SC(C)(C)[C@@H]2C(=O)O [Oxacillin],inhibition of MRSA metabolism (color change from purple to cyan),MRSA [7]; 16 μg/mL Oxacillin dose,not enough to fully inhibit
same,y-value,MRSA [7]; 16 μg/mL Oxacillin,0.3
same,y-value,MRSA [7]; 32 μg/mL Oxacillin,0.125
same,y-value,MRSA [7]; 64 μg/mL Oxacillin,0.13
same,MIC,"MRSA [7]; Staphylococcus aureus, MRSA, 1 h, read-out: minimum inhibitory concentration (MIC)",32 µg/mL
same,category according to the CLSI breakpoints,MRSA [7]; from MIC,resistant
same,"MIC by standard MIC assay using CLSI protocols, compared with chip MIC",MRSA [8],confirmed the obtained MIC
same,"increase of y values (2D chromaticity diagram) over 1-hour incubation, control and resistant aliquots",MRSA [3],0.16 to 0.33
same,color response over 1-hour incubation (resistant / susceptible),MRSA [3],color change from initial dark blue to green; also recorded: resistant
